Like-named read-outs stand apart in the source and are kept apart here.
Key:
[1] = Stability test in liver microsomes, human; type: in vitro ADME, humans; settings: human liver microsomes 0.5 mg/mL, 1.0 μM substrate, up to 60 min; read-out: Metabolic half-life in human liver microsome ( T1/2, min)
[2] = Saturation solubility of samples in FaSSIF solution; type: physicochemical; settings: FaSSIF pH 6.5, room temperature overnight
Protocol: About 0.21 g of sodium hydroxide, about 2.24 g of sodium dihydrogen phosphate dihydrate, and 3.09 g of sodium chloride were weighed out and dissolved in 500 mL of water, and then the pH was adjusted to 6.5 with 1 N sodium hydroxide or 1 N hydrochloric acid. 112 mg of FaSSIF solid was weighed out and placed in a 50 mL volumetric flask, and the above buffer was added for dissolution, diluted to volume, mixed well, and left to stand at room temperature for 2 h or more.
• Test sample: about 1 mg of the test sample was taken, and 1 mL of FaSSIF solution was added. The mixture was stirred at room temperature overnight and centrifuged, and the supernatant was collected and injected for analysis. • Control substance solution: about 1.5 mg of the test sample was precisely weighed out and placed in a 50 mL volumetric flask, and DMF was added for dissolution, diluted to volume, and mixed well.
• Mobile phase A: 1000 mL of purified water was accurately weighed out, 1 mL of formic acid was added, and the mixture was mixed well and degassed with ultrasonic. • Mobile phase B: acetonitrile
The peak of the main component of the control substance and the peak of the test substance consistent with the retention time of the peak of the main component of the control substance were integrated, and the concentration thereof in the FaSSIF solution was calculated according to external standard method.

[3] = test system: HCT116-MTAP wild-type (+/+)-cell strain; test: Tumor cell proliferation inhibition assay (CellTiter-Glo), HCT116-MTAP wild-type (+/+); type: cell-based; settings: Homo sapiens, 120 h, HCT116-MTAP wild-type (+/+) cells, 5-day treatment
Outline: (§1)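 Seed cells; 24 h later add compound (10 gradients, 1:3, max 10 μM; DMSO ctrl). Incubate 5 d, 37° C./5% CO2. Measure ATP via CellTiter-Glo.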

DOHH-2 cell strain = test: Tumor cell proliferation inhibition assay (CellTiter-Glo), DOHH-2; type: cell-based; settings: Homo sapiens, 120 h, DOHH-2 cells, 5-day treatment
Outline: as §1

hERG potassium current = biological target: T1, hERG potassium current (Homo sapiens, UniProt Q12809); test: hERG inhibition test (whole-cell patch clamp, Qpatch); type: cell-based; settings: initial concentration 30 μM, 6 concentration points
T1 construct: expressed in transfected cells; host or cells: HEK293, cultured under G418 selection
T1 sequence (Q12809 whole entry): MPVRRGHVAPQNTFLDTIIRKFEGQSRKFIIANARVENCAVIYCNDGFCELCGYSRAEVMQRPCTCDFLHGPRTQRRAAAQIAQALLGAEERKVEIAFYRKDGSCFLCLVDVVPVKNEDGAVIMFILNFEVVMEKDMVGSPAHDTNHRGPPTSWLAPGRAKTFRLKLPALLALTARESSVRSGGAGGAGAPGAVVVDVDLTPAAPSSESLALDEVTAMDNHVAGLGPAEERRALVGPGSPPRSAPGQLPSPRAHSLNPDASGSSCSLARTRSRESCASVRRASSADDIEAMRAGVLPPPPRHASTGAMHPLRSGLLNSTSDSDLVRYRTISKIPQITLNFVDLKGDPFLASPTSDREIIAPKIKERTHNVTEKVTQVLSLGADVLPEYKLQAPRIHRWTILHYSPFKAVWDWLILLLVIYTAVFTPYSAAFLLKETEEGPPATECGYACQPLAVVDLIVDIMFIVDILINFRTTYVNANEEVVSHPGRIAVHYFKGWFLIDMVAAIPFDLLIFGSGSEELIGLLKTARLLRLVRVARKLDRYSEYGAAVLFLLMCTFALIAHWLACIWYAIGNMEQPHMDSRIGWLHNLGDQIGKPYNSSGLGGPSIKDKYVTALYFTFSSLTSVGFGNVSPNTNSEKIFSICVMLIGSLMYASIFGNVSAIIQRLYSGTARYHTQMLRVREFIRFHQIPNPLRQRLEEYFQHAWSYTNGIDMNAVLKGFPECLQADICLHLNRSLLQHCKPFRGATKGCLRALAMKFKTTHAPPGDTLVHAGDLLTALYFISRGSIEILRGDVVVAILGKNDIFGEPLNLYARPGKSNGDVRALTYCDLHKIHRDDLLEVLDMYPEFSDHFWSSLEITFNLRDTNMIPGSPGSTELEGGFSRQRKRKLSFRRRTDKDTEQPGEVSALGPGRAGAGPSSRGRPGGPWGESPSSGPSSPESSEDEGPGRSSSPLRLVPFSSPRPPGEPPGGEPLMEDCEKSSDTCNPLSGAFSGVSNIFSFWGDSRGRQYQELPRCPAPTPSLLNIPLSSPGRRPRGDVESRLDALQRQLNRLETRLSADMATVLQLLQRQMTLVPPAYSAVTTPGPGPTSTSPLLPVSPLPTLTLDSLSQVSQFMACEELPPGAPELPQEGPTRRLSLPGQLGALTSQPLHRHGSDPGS
Protocol: The BEK293 cells were cultured in a DiVEM medium containing […] and 0.8 mg/mL G418 at 37° C. with 5% o CO2. The cells were digested by TrypLE™ Express and centrifuged. The cell density was adjusted to 2×10^6 cells/mL. The cells were gently mixed for 15-20 min using a shaker equilibrated at room temperature, and subjected to patch clamping on a machine. The medium of the prepared cells was replaced with extracellular fluid. The intracellular fluid and the extracellular fluid were taken from the fluid pool, and respectively added to the intracellular fluid pool and the cell and the test substance pool of the QPlate chip. The voltage stimulation of the whole-cell hERG potassium current was recorded by the whole-cell patch clamp, and the test data was collected and stored by Qpatch. The compound was diluted 3-fold at an initial concentration of 30 μM, and 6 concentration points were set, with each drug concentration being set for two administrations over a period of at least 5 min. The current detected in compound-free extracellular fluid for each cell was served as its own control group, and the detection was repeated at least twice independently using two cells per concentration. All electrophysiological experiments were performed at room temperature.
For data analysis, the current acted for each drug concentration and the current of the blank control were standardized
and then the inhibition rate corresponding to each drug concentration was calculated
The mean and standard error were calculated for each concentration, and the half maximal inhibitory concentration of each compound was calculated:
The dose-dependent effect was fitted non-linearly using the above equation, wherein Y represents the inhibition rate, C represents the concentration of the test substance, IC50 is the half maximal inhibitory concentration, and HillSlope represents the Hill coefficient. Curve fitting and calculation of IC50 were performed by Graphpad software.

CYP2C19 = biological target: T2, CYP2C19 (Homo sapiens, UniProt P33261); test: Cytochrome oxidase P450 inhibition test, CYP2C19; type: in vitro ADME; settings: liver microsome incubation
T2 construct: from tissue; host or cells: liver microsome
T2 sequence (P33261 whole entry): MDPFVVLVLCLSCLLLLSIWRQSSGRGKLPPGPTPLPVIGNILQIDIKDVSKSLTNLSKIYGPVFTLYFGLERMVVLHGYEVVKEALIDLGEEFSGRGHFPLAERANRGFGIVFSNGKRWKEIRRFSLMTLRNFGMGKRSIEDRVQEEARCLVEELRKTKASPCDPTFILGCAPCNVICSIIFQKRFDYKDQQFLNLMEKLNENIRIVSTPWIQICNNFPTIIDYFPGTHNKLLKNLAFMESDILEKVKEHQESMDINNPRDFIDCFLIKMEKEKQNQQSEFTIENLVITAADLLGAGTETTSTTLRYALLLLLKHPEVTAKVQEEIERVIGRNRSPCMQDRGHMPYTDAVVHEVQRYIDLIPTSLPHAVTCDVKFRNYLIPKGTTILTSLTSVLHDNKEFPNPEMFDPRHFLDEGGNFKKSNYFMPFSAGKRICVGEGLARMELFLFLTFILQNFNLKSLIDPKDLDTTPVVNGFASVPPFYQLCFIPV
Protocol: 100 mM K-Buffer: 9.5 mL of stock solution A was mixed with 40.5 mL of stock solution B, the total volume was adjusted to […] with ultrapure water, and the buffer was titrated to pH 7.4 with KOH or H3PO4. • Starting material A (1 M potassium dihydrogen phosphate): 136.5 g of potassium dihydrogen phosphate in 1 L of water. • Stock B […] in 1 L of water. The test substance powder was prepared into a stock solution with a certain concentration using DMSO or other organic solvents, which was then further diluted using a proper organic solvent. The extracorporeal incubation system for CYP450 enzyme metabolism phenotype study was biochemical reaction of a prepared liver microsome, a redox coenzyme, and an enzyme-specific selective inhibitor in simulated physiological temperature and environment. The concentration of the parent drug or a metabolite thereof in the incubation solution was determined by LC-MS/MS.

[4] = Pharmacokinetic test in rats (IV and PO); type: in vivo; settings: rat, plasma, SD rats; for half-life: read-out: T½ (converted)
[5] = IC50 score, read-out: Tumor cell 5-day relative growth inhibition (HCT116-MTAP+/+) (nM), score
[6] = IC50 value, read-out: Tumor cell 5-day relative growth inhibition (HCT116-MTAP+/+)
[7] = IC50 score, read-out: Tumor cell 5-day relative growth inhibition (DOHH-2) (nM), score
[8] = IC50 value, read-out: Tumor cell 5-day relative growth inhibition (DOHH-2)

SMILES | half-life at 1 μM [1] [min] | FaSSIF (pH = 6.5) (μg/mL) [2] [μg/mL] | IC50 [3, 5] [nM] | IC50 [3, 6] [nM] | IC50 (DOHH-2 cell strain; [7]) [nM] | IC50 (DOHH-2 cell strain; [8]) [nM] | IC50 (hERG potassium current) [µM] | IC50 (CYP2C19) [µM] | AUC ([4]; IV 1 mg/kg) [µM·h] | clearance ([4]; IV 1 mg/kg) [mL/min/kg] | bioavailability ([4]; IV 1 mg/kg, PO 10 mg/kg) [%] | half-life ([4]; IV 1 mg/kg) [h] | half-life ([4]; PO 10 mg/kg) [h] | bioavailability ([4]; IV 1 mg/kg, PO 5 mg/kg) [%] | AUC ([4]; PO 5 mg/kg) [µM·h] | half-life ([4]; PO 5 mg/kg) [h]
Cn1cc2c(n1)c(=O)n(-c1ccccc1Cl)c1nc(C(F)(F)F)ccc21 [Compound B182] | 258 | 17.6 | ≥ 2000 | 7340 | – | – | – | – | – | – | – | – | – | – | – | –
Cn1cc2c(n1)c(=O)n(-c1cccc(O)c1)c1nc(C(F)(F)F)ccc21 [Compound B148] | > 145 | – | – | – | < 500 | 443 | > 30 | – | – | – | – | – | – | – | – | –
Cc1ncccc1-n1c(=O)c2nn(C)cc2c2ccc(C(F)(F)F)nc21 (single isomer, unassigned) [Compound B180] | – | – | < 500 | 191 | < 500 | 134 | > 30 | > 10 | – | – | – | – | – | – | – | –
Cn1cc2c(n1)c(=O)n(-c1cccc3[nH]ncc13)c1cc(Cl)c(F)cc21 [Compound B257] | – | 248 | 500 to 2000 | 464 | – | – | > 30 | – | 177 | 0.283 | 243 | 8.8 | 72.8 | – | – | –
Cn1cc2c(n1)c(=O)n(-c1cccnc1)c1cc(Cl)ccc21 [Compound B12] | > 145 | – | 500 to 2000 | 1650 | 500 to 2000 | 1110 | > 30 | > 10 | 18.9 | 2.67 | – | 3.4 | – | 217 | 223 | 3.7
Cn1cc2c(n1)c(=O)n(-c1cccnc1C1CC1)c1cc(Cl)c(F)cc21 [Compound B340] | – | 36 | ≥ 2000 | > 10000 | – | – | – | – | 10.2 | 4.5 | – | 6.7 | – | – | 68.9 | 14.7
Cn1cc2c(n1)c(=O)n(-c1cccc3[nH]ncc13)c1cc(Cl)ccc21 [Compound B60] | 722 | 20.9 | 500 to 2000 | 1000 | < 500 | 39.1 | > 40 | > 10 | – | – | – | – | – | – | – | –
O=c1c2n[nH]cc2c2ccc(C(F)(F)F)nc2n1-c1cccnc1 [Compound B178] | – | – | ≥ 2000 | ≥ 2000 | – | – | > 30 | – | – | – | – | – | – | – | – | –
Cn1cc2c(n1)c(=O)n(-c1cccc3[nH]ncc13)c1nc(C(F)(F)F)ccc21 [Compound B181] | > 145 | 20.7 | 500 to 2000 | 1340 | 500 to 2000 | 1040 | > 30 | > 30 | 120 | 0.333 | – | 6.7 | – | 90 | 541 | 9.5
Cn1cc2c(n1)c(=O)n(-c1cccc3[nH]ncc13)c1cc(Cl)c(C#N)cc21 [Compound B258] | – | 131 | ≥ 2000 | > 10000 | – | – | – | – | – | – | – | – | – | – | – | –

Reference: patent US20240391923A1, “METHIONINE ADENOSYLTRANSFERASE 2A INHIBITOR FOR TREATING MTAP DELETION-TYPE CANCER” (SUZHOU GENHOUSE BIO CO., LTD., priority 2022, published 2024)
